Read-outs that look alike come from different tables or passages of the source.
Experiments:
B1-AR = target: T1, B1-AR (Homo sapiens, UniProt P08588); experiment: cAMP Gs dynamic HTRF assay, cells expressing beta-adrenergic receptor (CHO-K1), B1-AR; assay type: cell-based; settings: for EC50: cAMP HTRF, read-out: pEC50 [B1-AR] (converted); for Emax: relative to full agonist isoproterenol, read-out: Emax (% iso) (%) [B1-AR]
T1 construct: expressed in transfected cells; host or cells: CHO-K1

B2-AR = target: T2, B2-AR (Homo sapiens, UniProt P07550); experiment: cAMP Gs dynamic HTRF assay, cells expressing beta-adrenergic receptor (CHO-K1), B2-AR; assay type: cell-based; settings: for EC50: cAMP HTRF, read-out: pEC50 [B2-AR] (converted); for Emax: relative to full agonist isoproterenol, read-out: Emax (% iso) (%) [B2-AR]
T2 construct: expressed in transfected cells; host or cells: CHO-K1
T2 sequence (P07550 whole entry, species assumed): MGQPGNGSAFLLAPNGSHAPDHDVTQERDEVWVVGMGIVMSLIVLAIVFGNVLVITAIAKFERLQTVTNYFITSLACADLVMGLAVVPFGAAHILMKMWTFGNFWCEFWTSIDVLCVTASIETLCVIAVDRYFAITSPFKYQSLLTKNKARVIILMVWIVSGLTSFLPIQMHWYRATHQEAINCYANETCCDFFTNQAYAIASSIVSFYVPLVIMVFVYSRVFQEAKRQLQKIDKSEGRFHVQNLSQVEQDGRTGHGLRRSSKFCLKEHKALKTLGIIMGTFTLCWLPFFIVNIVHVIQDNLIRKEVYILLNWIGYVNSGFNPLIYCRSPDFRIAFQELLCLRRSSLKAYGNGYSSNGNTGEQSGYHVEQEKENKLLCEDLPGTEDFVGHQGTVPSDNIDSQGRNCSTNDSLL

T1 sequence (P08588 whole entry, species assumed): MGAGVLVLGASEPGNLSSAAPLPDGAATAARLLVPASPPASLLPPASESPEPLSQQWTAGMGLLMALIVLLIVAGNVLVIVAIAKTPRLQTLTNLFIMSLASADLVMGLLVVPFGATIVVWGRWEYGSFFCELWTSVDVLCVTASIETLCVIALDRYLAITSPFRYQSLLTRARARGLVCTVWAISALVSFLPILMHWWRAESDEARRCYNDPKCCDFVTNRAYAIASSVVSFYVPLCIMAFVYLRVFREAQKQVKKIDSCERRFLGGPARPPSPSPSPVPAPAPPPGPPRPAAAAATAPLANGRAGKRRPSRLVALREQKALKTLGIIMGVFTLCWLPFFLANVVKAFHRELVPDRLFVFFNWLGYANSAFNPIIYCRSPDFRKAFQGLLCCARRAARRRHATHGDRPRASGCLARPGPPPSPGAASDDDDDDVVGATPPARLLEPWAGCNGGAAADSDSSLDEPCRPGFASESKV

EC50 (B1-AR) [nM]	Emax (B1-AR) [%]	EC50 (B2-AR; CHO-K1 cells) [nM]	Emax (B2-AR; CHO-K1 cells) [%]	Compound	Emax (B2-AR; CHO-K1, CHO-K1 cells) [%]
< 10	70 to 90	< 10	> 90	O[C@@H](CNC1CCC1)c1ccc(F)c2[nH]ncc12 [I-137]	–
10 to 100	70 to 90	< 10	> 90	CC(C)CNC[C@H](O)c1cccc2[nH]nc(F)c12 [I-138]	–
< 10	> 90	< 10	> 90	CC(C)NC[C@H](O)c1cccc2[nH]nc(F)c12 [I-139]	–
< 10	> 90	< 10	> 90	O[C@@H](CNC1CC1)c1cccc2[nH]nc(F)c12 [I-140]	–
> 1000	70 to 90	> 1000	70 to 90	Cc1nc(N)c(Cl)cc1[C@@H](O)CNC(CO)CO [I-145]	–
> 1000	< 50	> 1000	> 90	Cc1nc(N)c(Cl)cc1[C@@H](O)CNC1COC1 [I-146]	–
< 10	70 to 90	< 10	> 90	CC(C)(C)NC[C@H](O)c1cccc2[nH]c(=O)sc12 [I-147]	–
> 1000	70 to 90	> 1000	70 to 90	CC1(N[C@H](CO)c2cncc3[nH]ncc23)CC1 [I-148]	–
> 1000	< 50	> 1000	70 to 90	CC1(N[C@@H](CO)c2cncc3[nH]ncc23)CC1 [I-149]	–
10 to 100	70 to 90	10 to 100	> 90	N#Cc1cc([C@@H](O)CNC2CCC2)c2cn[nH]c2c1 [I-152]	–
100 to 1000	70 to 90	100 to 1000	> 90	N#Cc1cc([C@@H](O)CNC2CC2)c2cn[nH]c2c1 [I-153]	–
100 to 1000	70 to 90	10 to 100	> 90	CC1(NC[C@H](O)c2cncc3[nH]ncc23)CCC1 [I-156]	–
100 to 1000	> 90	100 to 1000	> 90	O[C@@H](CNC1CCC1)c1cncc2[nH]ncc12 [I-158]	–
100 to 1000	70 to 90	100 to 1000	> 90	CC(C)NC[C@H](O)c1cncc2[nH]ncc12 [I-159]	–
10 to 100	> 90	10 to 100	> 90	CC(C)NC[C@H](O)c1cc(C#N)cc2[nH]ncc12 [I-161]	–
> 1000	> 90	100 to 1000	> 90	CC(C)(CO)NC[C@H](O)c1cncc2[nH]ncc12 [I-162]	–

EC50 (B1-AR) [nM]	Emax (B1-AR) [%]	EC50 (B2-AR; CHO-K1 cells) [nM]	Emax (B2-AR; CHO-K1 cells) [%]	Compound	Emax (B2-AR; CHO-K1, CHO-K1 cells) [%]
> 1000	70 to 90	> 1000	50 to 70	CC(C)CNC[C@H](O)c1cncc2[nH]ncc12 [I-163]	–
100 to 1000	70 to 90	100 to 1000	> 90	O[C@@H](CNC1CC1)c1cncc2[nH]ncc12 [I-164]	–
100 to 1000	50 to 70	10 to 100	70 to 90	Cc1n[nH]c2cccc([C@@H](O)CNC3CCC3)c12 [I-166]	–
10 to 100	70 to 90	< 10	70 to 90	Cc1n[nH]c2cccc([C@@H](O)CNC3(C)CCC3)c12 [I-168]	–
100 to 1000	70 to 90	10 to 100	70 to 90	Cc1n[nH]c2cccc([C@@H](O)CNC3(C)CC3)c12 [I-169]	–
100 to 1000	70 to 90	10 to 100	70 to 90	Cc1n[nH]c2cccc([C@@H](O)CNC(C)C)c12 [I-170]	–
100 to 1000	70 to 90	100 to 1000	50 to 70	CCc1n[nH]c2cccc([C@@H](O)CNC(C)(C)C)c12 [I-172]	–
> 1000	70 to 90	100 to 1000	50 to 70	Cc1n[nH]c2cccc([C@@H](O)CNCC(C)C)c12 [I-174]	–
100 to 1000	70 to 90	100 to 1000	70 to 90	CC(C)(C)NC[C@H](O)c1cccc2[nH]nc(C(F)F)c12 [I-175]	–
> 1000	< 50	> 1000	< 50	Cc1nc(N)c(F)cc1[C@@H](CO)NC(C)(C)C [I-179]	–
> 1000	< 50	> 1000	< 50	Cc1nc(N)c(F)cc1[C@H](CO)NC(C)(C)C [I-180]	–
> 1000	< 50	> 1000	50 to 70	Cc1ncccc1[C@@H](O)CNC1CC(F)(F)C1 [I-181]	–
> 1000	< 50	> 1000	50 to 70	Cc1ncccc1[C@@H](O)CNC1CC(C)(C)C1 [I-182]	–
> 1000	< 50	> 1000	< 50	Cc1nc(N)c(Cl)cc1[C@H](CO)NC1CC(F)(F)C1 [I-185]	–
> 1000	< 50	> 1000	< 50	Cc1nc(N)c(Cl)cc1[C@@H](CO)NC1CC(F)(F)C1 [I-186]	–

Compound	EC50 (B1-AR) [nM]	Emax (B1-AR) [%]	EC50 (B2-AR; CHO-K1 cells) [nM]	Emax (B2-AR; CHO-K1 cells) [%]	Emax (B2-AR; CHO-K1, CHO-K1 cells) [%]
CC(C)(C)NC[C@@H](O)c1ccc(N)nn1 [I-141]	> 1000	> 90	100 to 1000	–	> 90
CC(C)(C)NC[C@H](O)c1ccc(N)nn1 [I-142]	10 to 100	> 90	10 to 100	–	> 90
CC(C)(C)NC[C@@H](O)c1cccc(Br)n1 [I-143]	100 to 1000	70 to 90	> 1000	–	50 to 70
Cc1nc(N)ncc1[C@@H](O)CNC(C)(C)C [I-144]	> 1000	70 to 90	10 to 100	–	> 90
Cc1nc(N)ccc1[C@@H](O)CNC(C)(C)C [I-150]	10 to 100	> 90	< 10	–	> 90
CC(C)(CO)NC[C@H](O)c1cc(C#N)cc2[nH]ncc12 [I-151]	100 to 1000	70 to 90	100 to 1000	–	> 90
Cc1nc(N)ccc1[C@@H](O)CNC1(C)CCC1 [I-154]	100 to 1000	> 90	< 10	–	> 90
CC1(NC[C@H](O)c2cc(C#N)cc3[nH]ncc23)CC1 [I-155]	100 to 1000	70 to 90	10 to 100	–	> 90
CC1(NC[C@H](O)c2cc(C#N)cc3[nH]ncc23)CCC1 [I-157]	100 to 1000	70 to 90	10 to 100	–	> 90
CC(C)CNC[C@H](O)c1cc(C#N)cc2[nH]ncc12 [I-160]	100 to 1000	70 to 90	100 to 1000	–	70 to 90
CCC(C)(C)NC[C@H](O)c1cccnc1C [I-165]	100 to 1000	70 to 90	100 to 1000	–	70 to 90
Cc1n[nH]c2cccc([C@@H](O)CNC3CC3)c12 [I-167]	> 1000	70 to 90	100 to 1000	–	70 to 90
CCC(C)(C)NC[C@H](O)c1cc(Cl)c(N)nc1C [I-171]	10 to 100	70 to 90	< 10	–	> 90
Cc1n[nH]c2cccc([C@@H](O)CNC(C)(C)CO)c12 [I-173]	100 to 1000	70 to 90	100 to 1000	–	70 to 90
Cc1ncccc1[C@@H](O)CNC(C)(C)CO [I-176]	> 1000	50 to 70	100 to 1000	–	70 to 90
Cc1ncccc1[C@@H](O)CNC1(C)CCC1 [I-177]	> 1000	70 to 90	10 to 100	–	> 90
Cc1nc(N)c(Cl)cc1[C@@H](O)CNC1CC(F)(F)C1 [I-178]	> 1000	50 to 70	100 to 1000	–	> 90
Cc1ncccc1[C@@H](O)CNCC(C)C [I-183]	> 1000	< 50	> 1000	–	50 to 70
Cc1ncccc1[C@@H](O)CNC(C)C [I-184]	> 1000	70 to 90	100 to 1000	–	70 to 90
Cc1ncccc1[C@@H](O)CNC1CCC1 [I-187]	> 1000	70 to 90	100 to 1000	–	70 to 90
Cc1ncccc1[C@@H](O)CNC1(C)CC1 [I-188]	100 to 1000	> 90	10 to 100	–	> 90
CC(C)(C)NC[C@H](O)c1ccc(Cl)c2[nH]nc(F)c12 [I-189]	< 10	> 90	< 10	–	70 to 90

Source: US20240270701A1, “BETA ADRENERGIC AGONIST AND METHODS OF USING THE SAME” (Curasen Therapeutics, Inc., priority 2021, published 2024)
